Source: patent US12486267B2, “Imidazo[1,2-A]pyridine and [1,2,4]triazolo[1,5-A]pyridine derivatives as TLR9 inhibitors for the treatment of fibrosis” (BRISTOL-MYERS SQUIBB COMPANY, priority 2020, dated 2025)

Key:
Format in all cases: cell-based
human TLR7 = target: T1, human TLR7 (Homo sapiens, UniProt Q9NYK1); assay: TLR7 inhibition reporter assay (HEK-Blue cells, SEAP reporter); details: HEK-Blue cells overexpressing human TLR7; stimulated with gardiquimod 7.5 μM; 22 hour incubation; SEAP readout
T1 sequence (Q9NYK1 27-1049): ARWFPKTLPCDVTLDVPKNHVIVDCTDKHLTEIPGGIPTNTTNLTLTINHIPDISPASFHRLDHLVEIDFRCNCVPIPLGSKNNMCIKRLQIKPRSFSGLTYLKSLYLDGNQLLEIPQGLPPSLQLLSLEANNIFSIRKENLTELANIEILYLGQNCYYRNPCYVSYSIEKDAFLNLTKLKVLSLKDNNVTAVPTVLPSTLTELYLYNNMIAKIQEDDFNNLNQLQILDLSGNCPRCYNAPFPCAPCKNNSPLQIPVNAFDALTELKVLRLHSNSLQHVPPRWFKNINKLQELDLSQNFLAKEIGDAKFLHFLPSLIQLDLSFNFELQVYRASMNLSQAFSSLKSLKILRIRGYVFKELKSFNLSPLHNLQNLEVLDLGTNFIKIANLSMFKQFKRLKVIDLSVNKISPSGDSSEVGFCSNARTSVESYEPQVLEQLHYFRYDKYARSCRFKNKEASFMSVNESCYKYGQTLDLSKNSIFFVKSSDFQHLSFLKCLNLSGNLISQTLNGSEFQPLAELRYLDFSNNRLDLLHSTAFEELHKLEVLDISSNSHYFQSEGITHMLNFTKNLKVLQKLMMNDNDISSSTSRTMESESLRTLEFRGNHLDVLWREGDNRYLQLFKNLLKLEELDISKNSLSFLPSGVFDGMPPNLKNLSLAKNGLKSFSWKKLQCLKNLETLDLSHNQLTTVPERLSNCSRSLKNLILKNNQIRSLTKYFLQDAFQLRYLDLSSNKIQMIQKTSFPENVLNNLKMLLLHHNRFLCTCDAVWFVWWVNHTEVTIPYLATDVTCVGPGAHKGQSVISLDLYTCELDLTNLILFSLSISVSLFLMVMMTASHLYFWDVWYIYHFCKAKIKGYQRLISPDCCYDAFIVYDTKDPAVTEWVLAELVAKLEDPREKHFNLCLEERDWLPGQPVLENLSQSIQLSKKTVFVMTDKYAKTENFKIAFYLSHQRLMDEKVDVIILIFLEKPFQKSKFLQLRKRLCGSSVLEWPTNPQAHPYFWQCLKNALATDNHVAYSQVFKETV
In short: (§1)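 HEK-Blue cells with an NF-κB/AP-1-driven SEAP reporter were pre-treated 30 min at room temperature with compound (0.05 nM–50 μM), then stimulated with gardiquimod 7.5 μM (TLR7), R848 15.9 μM (TLR8) or ODN2006 5 nM (TLR9). After 22 h at 37 °C, SEAP was read; % inhibition was referenced to agonist+DMSO and known-inhibitor wells.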

human TLR8 = target: T2, human TLR8 (Homo sapiens, UniProt Q9NR97); assay: TLR8 inhibition reporter assay (HEK-Blue cells, SEAP reporter); details: HEK-Blue cells overexpressing human TLR8; stimulated with R848 15.9 μM; 22 hour incubation; SEAP readout
T2 sequence (Q9NR97 27-1041): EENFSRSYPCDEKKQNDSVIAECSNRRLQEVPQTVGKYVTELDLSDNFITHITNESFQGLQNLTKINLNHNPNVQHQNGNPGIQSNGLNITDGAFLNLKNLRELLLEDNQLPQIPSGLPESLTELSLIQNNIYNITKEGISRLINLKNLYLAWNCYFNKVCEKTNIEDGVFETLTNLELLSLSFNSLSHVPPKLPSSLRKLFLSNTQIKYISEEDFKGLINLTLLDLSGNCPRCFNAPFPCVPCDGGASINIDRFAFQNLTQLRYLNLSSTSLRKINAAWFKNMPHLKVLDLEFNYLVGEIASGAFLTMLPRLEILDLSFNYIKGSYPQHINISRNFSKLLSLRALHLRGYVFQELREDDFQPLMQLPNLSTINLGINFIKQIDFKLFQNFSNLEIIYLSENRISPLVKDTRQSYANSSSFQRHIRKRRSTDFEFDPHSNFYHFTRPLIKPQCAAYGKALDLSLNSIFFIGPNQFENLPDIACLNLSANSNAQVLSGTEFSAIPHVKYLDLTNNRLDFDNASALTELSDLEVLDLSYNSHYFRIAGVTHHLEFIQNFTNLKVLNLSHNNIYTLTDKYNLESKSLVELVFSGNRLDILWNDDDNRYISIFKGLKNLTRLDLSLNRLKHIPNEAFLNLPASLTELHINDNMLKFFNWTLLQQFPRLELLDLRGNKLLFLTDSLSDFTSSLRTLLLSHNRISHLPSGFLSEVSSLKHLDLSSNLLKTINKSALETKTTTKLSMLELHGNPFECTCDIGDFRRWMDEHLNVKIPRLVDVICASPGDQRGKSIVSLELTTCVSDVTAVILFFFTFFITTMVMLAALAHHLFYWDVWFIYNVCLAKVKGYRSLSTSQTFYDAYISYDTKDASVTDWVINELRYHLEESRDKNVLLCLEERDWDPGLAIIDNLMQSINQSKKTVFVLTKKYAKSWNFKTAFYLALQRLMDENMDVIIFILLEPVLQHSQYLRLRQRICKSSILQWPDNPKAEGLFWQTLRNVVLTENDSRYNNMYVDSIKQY
Protocol: TLR7/8/9 Inhibition Reporter Assays
HEK-Blue™-cells (Invivogen) overexpressing human TLR7, TLR8 or TLR9 receptors were used for screening inhibitors of these receptors using an inducible SEAP (secreted embryonic alkaline phosphatase) reporter gene under the control of the […] minimal promoter fused to five NF-κB and AP-1-binding sites. Briefly, cells are seeded into Greiner 384 well plates (15000 cells per well for TLR7, 20,000 for TLR8 and 25,000 for TLR9) and then treated with test compounds in DMSO to yield a final dose response concentration range of 0.05 nM-50 μM. After a 30 minute compound pre-treatment at room temperature, the cells are then stimulated with a TLR7 ligand (gardiquimod at a final concentration of 7.5 μM), TLR8 ligand (R848 at a final concentration of 15.9 μM) or TLR9 ligand (ODN2006 at a final concentration of 5 nM) to activate NF-κB and AP-1 which induce the production of SEAP. After a 22 hour incubation at 37° C., 5% CO2, SEAP levels are determined with the addition of HEK-Blue™ Detection reagent (Invivogen), a cell culture medium that allows for detection of SEAP, according to manufacturer's specifications. The percent inhibition is determined as the % reduction in the HEK-Blue signal present in wells treated with agonist plus DMSO alone compared to wells treated with a known inhibitor.

human TLR9 = target: T3, human TLR9 (Homo sapiens, UniProt Q9NR96); assay: TLR9 inhibition reporter assay (HEK-Blue cells, SEAP reporter); details: HEK-Blue cells overexpressing human TLR9; stimulated with ODN2006 5 nM; 22 hour incubation; SEAP readout
T3 sequence (Q9NR96 26-1032): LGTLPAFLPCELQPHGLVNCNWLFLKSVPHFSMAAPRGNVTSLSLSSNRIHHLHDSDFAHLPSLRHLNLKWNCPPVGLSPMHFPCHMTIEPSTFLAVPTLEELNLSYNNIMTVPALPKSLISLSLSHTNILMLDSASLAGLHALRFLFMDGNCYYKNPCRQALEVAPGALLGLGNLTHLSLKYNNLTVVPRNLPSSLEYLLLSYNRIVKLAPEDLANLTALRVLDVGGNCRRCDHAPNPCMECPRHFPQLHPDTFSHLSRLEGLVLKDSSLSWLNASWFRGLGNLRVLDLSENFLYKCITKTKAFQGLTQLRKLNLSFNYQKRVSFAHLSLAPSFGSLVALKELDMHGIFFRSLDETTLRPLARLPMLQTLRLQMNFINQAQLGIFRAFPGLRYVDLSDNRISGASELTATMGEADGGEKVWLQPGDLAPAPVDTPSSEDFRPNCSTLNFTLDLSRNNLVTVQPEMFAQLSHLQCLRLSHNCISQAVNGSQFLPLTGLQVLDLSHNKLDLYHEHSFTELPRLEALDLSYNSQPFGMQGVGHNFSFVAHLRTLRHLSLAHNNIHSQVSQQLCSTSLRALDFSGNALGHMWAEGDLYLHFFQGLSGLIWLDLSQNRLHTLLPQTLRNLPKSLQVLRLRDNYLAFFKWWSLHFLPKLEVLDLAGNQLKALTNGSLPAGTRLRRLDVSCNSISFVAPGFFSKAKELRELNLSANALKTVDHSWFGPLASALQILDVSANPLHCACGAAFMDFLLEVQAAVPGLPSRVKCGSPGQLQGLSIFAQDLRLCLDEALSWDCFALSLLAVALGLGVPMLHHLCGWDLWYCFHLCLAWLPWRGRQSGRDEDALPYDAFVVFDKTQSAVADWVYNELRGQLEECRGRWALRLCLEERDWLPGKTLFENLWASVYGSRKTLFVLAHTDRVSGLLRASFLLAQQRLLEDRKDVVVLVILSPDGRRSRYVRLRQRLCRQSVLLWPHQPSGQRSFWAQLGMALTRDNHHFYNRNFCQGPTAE
In short: as §1

| IC50 (human TLR7) [µM] | IC50 (human TLR8) [µM] | IC50 (human TLR9) [nM] | SMILES |
| --- | --- | --- | --- |
| 43 | > 50 | 141 | COc1ccc(-c2cn3c(n2)CCC(C2CCN(C4CCN(C(=O)C(C)C)CC4)CC2)C3)cc1OC (racemic) [Example 39, 1-(4-(2-(3,4-dimethoxyphenyl)-5,6,7,8-tetrahydroimidazo[1,2-a]pyridin-6-yl)-[1,4′-bipiperidin]-1′-yl)-2-methylpropan-1-one] |
| 1.8 | > 50 | 22 | COc1ccc(-c2cn3c(n2)CCC(C2CCN(C4CC5(C4)CN(C4CCC4)C5)CC2)C3)cc1OC (single isomer, unassigned) [Example 49, 6-(1-(2-cyclobutyl-2-azaspiro[3.3]heptan-6-yl)piperidin-4-yl)-2-(3,4-dimethoxyphenyl)-5,6,7,8-tetrahydroimidazo[1,2-a]pyridine] |
| 18.1 | 16.7 | 58 | CC(C)CN1CCC(N2CCC(c3ccc4nc(-c5ccc(S(C)(=O)=O)cc5)cn4c3F)CC2)CC1 [Example 131, 5-fluoro-6-(1′-isobutyl-[1,4′-bipiperidin]-4-yl)-2-(4-(methylsulfonyl)phenyl) imidazo[1,2-a]pyridine] |

The remaining lines, values behind:

| SMILES | IC50 (human TLR7) [µM] | IC50 (human TLR8) [µM] | IC50 (human TLR9) [nM] |
| --- | --- | --- | --- |
| CS(=O)(=O)c1ccc(-c2cn3cc(C4CCN(C5CCCN(C6CCOCC6)CC5)CC4)cc(F)c3n2)cc1 (single isomer, unassigned) [Example 129, 8-fluoro-2-(4-(methylsulfonyl)phenyl)-6-(1-(1-(tetrahydro-2H-pyran-4-yl)azepan-4-yl)piperidin-4-yl)imidazo[1,2-a]pyridine] | > 50 | > 50 | 20 |
| CS(=O)(=O)c1ccc(-c2cn3cc(C4CCN(C5CC6CCC(C5)N6CC5CC5)CC4)cc(F)c3n2)cc1 (single isomer, unassigned) [Example 115, 6-(1-(8-(cyclopropylmethyl)-8-azabicyclo[3.2.1]octan-3-yl)piperidin-4-yl)-8-fluoro-2-(4-(methylsulfonyl)phenyl)imidazo[1,2-a]pyridine] | 1.7 | 49 | 43 |
| CC(C)CN1CCCC(N2CCC(c3cc(F)c4nc(-c5ccc(S(C)(=O)=O)cc5)cn4c3)CC2)CC1 (single isomer, unassigned) [Example 125, 8-fluoro-6-(1-(1-isobutylazepan-4-yl)piperidin-4-yl)-2-(4-(methylsulfonyl)phenyl) imidazo[1,2-a]pyridine] | 12.7 | 47.4 | 20 |
| Cc1cc(C2CCN(C3CCN(CC(C)C)CC3)CC2)cn2cc(-c3ccc(S(C)(=O)=O)cc3)nc12 [Example 9, 6-(1′-isobutyl-[1,4′-bipiperidin]-4-yl)-8-methyl-2-(4-(methylsulfonyl)phenyl) imidazo[1,2-a]pyridine] | 3.3 | > 50 | 42 |
| CC(C)N1C2CCC1CC(N1CCC(c3cc(F)c4nc(-c5ccc(S(C)(=O)=O)cc5)cn4c3)CC1)C2 (single isomer, unassigned) [Example 69, 8-fluoro-6-(1-(8-isopropyl-8-azabicyclo[3.2.1]octan-3-yl)piperidin-4-yl)-2-(4-(methylsulfonyl)phenyl)imidazo[1,2-a]pyridine] | 3.4 | > 50 | 26 |
| COc1ccc(-c2cn3cc(-c4ccc(N5CCN(CC(C)C)CC5)cc4)cc(C)c3n2)cc1OC [Example 94, 2-(3,4-dimethoxyphenyl)-6-(4-(4-isobutylpiperazin-1-yl)phenyl)-8-methylimidazo[1,2-a]pyridine] | > 50 | > 50 | 220 |
| CS(=O)(=O)c1ccc(-c2cn3cc(C4CCN(C5CCCN(CC6CC6)CC5)CC4)cc(F)c3n2)cc1 (single isomer, unassigned) [Example 128, 6-(1-(1-(cyclopropylmethyl)azepan-4-yl)piperidin-4-yl)-8-fluoro-2-(4-(methylsulfonyl)phenyl)imidazo[1,2-a]pyridine] | 2.4 | > 50 | 8.4 |
